Biological target: human M4 receptor (Homo sapiens (Human), UniProt P08173)
Test: Radioligand (tritiated N-methylscopolamine) binding assay, M4
Conditions: Ki against the M4 receptor; membranes from CHO cells expressing human M4; tritiated N-methylscopolamine 1.5 nM; read-out: Ki
Protocol: Binding affinity (Ki) of compounds was measured by inhibition of radioligand binding to membranes from CHO cells expressing human M1, M2, M3, M4 and M5 receptors. Membranes were prepared by nitrogen cavitation and differential centrifugation as previously described (Hoare et al., Mol. Pharmacol. 2003 March; 63(3): 751-65). The radioligand employed was tritiated N-methylscopolamine, used at a concentration of 1.5 nM. A dose-response of twelve concentrations of compound was used, ranging from 10 μM to […]. The assay buffer was 50 mM HEPES, 100 mM NaCl, 5 mM MgCl2, 1 mM ethylenediaminetetraacetic acid, pH-adjusted to pH 7.4. Membranes, radioligand and compound were incubated together for 90 minutes at 37° C., in a total volume of 150 μl in a 96-well plate. Receptor-bound radioligand was then collected by harvesting the assay over glass fiber filters pretreated with polyethylenimine to trap the cell membranes, using rapid vacuum filtration. Harvesting and radioactivity counting was conducted as previously described (see, e.g., Hoare et al., Mol. Pharmacol. 2003 63(3):751-65); Erratum at Mol. Pharmacol. 2005 July; 68(1): 260).

human M4 receptor, sequence (P08173 whole entry): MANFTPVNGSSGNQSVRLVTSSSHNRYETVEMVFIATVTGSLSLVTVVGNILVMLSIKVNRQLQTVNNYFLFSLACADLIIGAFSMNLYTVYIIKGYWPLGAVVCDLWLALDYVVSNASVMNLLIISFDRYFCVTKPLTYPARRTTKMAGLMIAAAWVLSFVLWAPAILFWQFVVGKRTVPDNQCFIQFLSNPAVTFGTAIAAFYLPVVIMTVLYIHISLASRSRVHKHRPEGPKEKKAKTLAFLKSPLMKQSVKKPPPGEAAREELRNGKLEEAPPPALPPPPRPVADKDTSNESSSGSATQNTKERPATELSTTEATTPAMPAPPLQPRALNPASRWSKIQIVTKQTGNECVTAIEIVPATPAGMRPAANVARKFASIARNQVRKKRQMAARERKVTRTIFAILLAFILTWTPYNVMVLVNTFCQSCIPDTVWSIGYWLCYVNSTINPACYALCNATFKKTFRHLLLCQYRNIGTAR

Ki [nM]	SMILES
10 to 100	C[C@@H]1CN(c2cnc3ccccc3c2)CCN1C(=O)NCCC1CCN(Cc2ccccc2)CC1 [4-40, (2R)-N-[2-(1-benzylpiperidin-4-yl)ethyl]-2-methyl-4-(quinolin-3-yl)piperazine-1-carboxamide]
10 to 100	C[C@@H]1CN(c2ncc(F)cn2)CCN1C(=O)NCCC1CCN(Cc2ccccc2)CC1 [4-41, (2R)-N-[2-(1-benzylpiperidin-4-yl)ethyl]-4-(5-fluoropyrimidin-2-yl)-2-methylpiperazine-1-carboxamide]
10 to 100	C[C@@H]1CN(c2ccc(C#N)cc2F)CCN1C(=O)NCCC1CCN(Cc2ccccc2)CC1 [4-43, (2R)-N-[2-(1-benzylpiperidin-4-yl)ethyl]-4-(4-cyano-2-fluorophenyl)-2-methylpiperazine-1-carboxamide]
10 to 100	C[C@@H]1CN(c2ccc(C#N)s2)CCN1C(=O)NCCC1CCN(Cc2ccccc2)CC1 [4-44, (2R)-N-[2-(1-benzylpiperidin-4-yl)ethyl]-4-(5-cyanothiophen-2-yl)-2-methylpiperazine-1-carboxamide]
10 to 100	C[C@@H]1CN(c2cc(F)ccc2F)CCN1C(=O)NCCC1CCN(Cc2ccccc2)CC1 [4-45, (2R)-N-[2-(1-benzylpiperidin-4-yl)ethyl]-4-(2,5-difluorophenyl)-2-methylpiperazine-1-carboxamide]
10 to 100	C[C@@H]1CN(c2ccc(F)cn2)CCN1C(=O)NCCC1CCN(Cc2ccccc2)CC1 [4-46, (2R)-N-[2-(1-benzylpiperidin-4-yl)ethyl]-4-(5-fluoropyridin-2-yl)-2-methylpiperazine-1-carboxamide]
10 to 100	C[C@@H]1CN(c2ccccc2)CCN1C(=O)NCCC1CCN(Cc2ccccc2)CC1 [4-47, (2R)-N-[2-(1-benzylpiperidin-4-yl)ethyl]-2-methyl-4-phenylpiperazine-1-carboxamide]
10 to 100	C[C@@H]1CN(c2ncc(F)cc2F)CCN1C(=O)NCCC1CCN(Cc2ccccc2)CC1 [4-48, (2R)-N-[2-(1-benzylpiperidin-4-yl)ethyl]-4-(3,5-difluoropyridin-2-yl)-2-methylpiperazine-1-carboxamide]
100 to 1000	C[C@@H]1CN(c2ccccc2F)CCN1C(=O)NCCC1CCN(Cc2ccccc2)CC1 [4-49, (2R)-N-[2-(1-benzylpiperidin-4-yl)ethyl]-4-(2-fluorophenyl)-2-methylpiperazine-1-carboxamide]
100 to 1000	COc1cccc(N2CCN(C(=O)NCCC3CCN(Cc4ccccc4)CC3)[C@H](C)C2)n1 [4-51, (2R)-N-[2-(1-benzylpiperidin-4-yl)ethyl]-4-(6-methoxypyridin-2-yl)-2-methylpiperazine-1-carboxamide]
100 to 1000	C[C@@H]1CN(c2ncc(F)c(C#N)n2)CCN1C(=O)NCCC1CCN(Cc2ccccc2)CC1 [4-55, (2R)-N-[2-(1-benzylpiperidin-4-yl)ethyl]-4-(4-cyano-5-fluoropyrimidin-2-yl)-2-methylpiperazine-1-carboxamide]
100 to 1000	COc1ccc(N2CCN(C(=O)NCCC3CCN(Cc4ccccc4)CC3)CC2C)cc1 (stereo not drawn) [4-56, N-[2-(1-benzylpiperidin-4-yl)ethyl]-4-(4-methoxyphenyl)-3-methylpiperazine-1-carboxamide]
100 to 1000	C[C@@H]1CN(c2cncc(F)c2)CCN1C(=O)NCCC1CCN(Cc2ccccc2)CC1 [4-61, (2R)-N-[2-(1-benzylpiperidin-4-yl)ethyl]-4-(5-fluoropyridin-3-yl)-2-methylpiperazine-1-carboxamide]
100 to 1000	C[C@@H]1CN(c2ccccn2)CCN1C(=O)NCCC1CCN(Cc2ccccc2)CC1 [4-62, (2R)-N-[2-(1-benzylpiperidin-4-yl)ethyl]-2-methyl-4-(pyridin-2-yl)piperazine-1-carboxamide]
100 to 1000	Cc1cncc(N2CCN(C(=O)NCCC3CCN(Cc4ccccc4)CC3)[C@H](C)C2)c1 [4-63, (2R)-N-[2-(1-benzylpiperidin-4-yl)ethyl]-2-methyl-4-(5-methylpyridin-3-yl)piperazine-1-carboxamide]
